Test results from PMC6407917, “Identification of GSK3186899/DDD853651 as a Preclinical Development Candidate for the Treatment of Visceral Leishmaniasis” (Journal of Medicinal Chemistry, 2018).

How the values were obtained:
Assay in all cases: biochemical
Set-up in all cases: species or system HEK293/K-562/placenta mixed human extract; Kinobeads chemoproteomic competition binding, quantified by TMT LC-MS/MS, dose response up to 20 uM
DCK = DCK (Homo sapiens, UniProt P27707)
STK17B = STK17B (Homo sapiens, UniProt O94768)
PRKCD = PRKCD (Homo sapiens, UniProt Q05655)
ULK1 = ULK1 (Homo sapiens, UniProt O75385)
HCK = HCK (Homo sapiens, UniProt P08631)
HCK, sequence (P08631 whole entry): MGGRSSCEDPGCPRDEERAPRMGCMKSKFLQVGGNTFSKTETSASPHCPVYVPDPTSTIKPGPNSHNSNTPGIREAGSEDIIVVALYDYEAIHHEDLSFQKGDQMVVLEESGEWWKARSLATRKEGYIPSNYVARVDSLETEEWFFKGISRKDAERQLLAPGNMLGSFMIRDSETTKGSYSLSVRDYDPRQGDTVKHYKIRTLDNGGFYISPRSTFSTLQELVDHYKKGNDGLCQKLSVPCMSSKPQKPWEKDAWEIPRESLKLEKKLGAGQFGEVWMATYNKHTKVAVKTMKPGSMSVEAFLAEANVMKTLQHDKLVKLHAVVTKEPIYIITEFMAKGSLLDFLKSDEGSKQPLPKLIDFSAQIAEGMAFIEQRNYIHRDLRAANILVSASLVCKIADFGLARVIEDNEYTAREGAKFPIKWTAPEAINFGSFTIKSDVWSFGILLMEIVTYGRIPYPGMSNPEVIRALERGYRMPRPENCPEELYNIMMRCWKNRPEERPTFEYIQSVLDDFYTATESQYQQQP

LATS2 = LATS2 (Homo sapiens, UniProt Q9NRM7)
CHEK2 = CHEK2 (Homo sapiens, UniProt O96017)
CDK7 = CDK7 (Homo sapiens, UniProt P50613)
SYK = SYK (Homo sapiens, UniProt P43405)
TGFBR1 = TGFBR1 (Homo sapiens, UniProt P36897)
TGFBR1, sequence (P36897 whole entry): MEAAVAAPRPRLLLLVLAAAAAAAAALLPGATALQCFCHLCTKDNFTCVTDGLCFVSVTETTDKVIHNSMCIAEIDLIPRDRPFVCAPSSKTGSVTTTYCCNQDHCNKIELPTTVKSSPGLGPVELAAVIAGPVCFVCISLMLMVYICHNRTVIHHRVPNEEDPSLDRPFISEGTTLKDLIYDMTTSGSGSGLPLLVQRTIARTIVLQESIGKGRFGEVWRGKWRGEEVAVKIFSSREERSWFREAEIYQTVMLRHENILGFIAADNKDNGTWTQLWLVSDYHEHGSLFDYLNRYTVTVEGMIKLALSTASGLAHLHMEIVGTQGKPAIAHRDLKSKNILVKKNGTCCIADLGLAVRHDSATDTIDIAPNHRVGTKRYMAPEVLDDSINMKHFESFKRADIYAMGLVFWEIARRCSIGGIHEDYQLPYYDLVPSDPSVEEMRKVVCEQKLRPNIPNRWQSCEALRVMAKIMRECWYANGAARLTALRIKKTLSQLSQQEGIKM

AXL = AXL (Homo sapiens, UniProt P30530)
AXL, sequence (P30530 whole entry): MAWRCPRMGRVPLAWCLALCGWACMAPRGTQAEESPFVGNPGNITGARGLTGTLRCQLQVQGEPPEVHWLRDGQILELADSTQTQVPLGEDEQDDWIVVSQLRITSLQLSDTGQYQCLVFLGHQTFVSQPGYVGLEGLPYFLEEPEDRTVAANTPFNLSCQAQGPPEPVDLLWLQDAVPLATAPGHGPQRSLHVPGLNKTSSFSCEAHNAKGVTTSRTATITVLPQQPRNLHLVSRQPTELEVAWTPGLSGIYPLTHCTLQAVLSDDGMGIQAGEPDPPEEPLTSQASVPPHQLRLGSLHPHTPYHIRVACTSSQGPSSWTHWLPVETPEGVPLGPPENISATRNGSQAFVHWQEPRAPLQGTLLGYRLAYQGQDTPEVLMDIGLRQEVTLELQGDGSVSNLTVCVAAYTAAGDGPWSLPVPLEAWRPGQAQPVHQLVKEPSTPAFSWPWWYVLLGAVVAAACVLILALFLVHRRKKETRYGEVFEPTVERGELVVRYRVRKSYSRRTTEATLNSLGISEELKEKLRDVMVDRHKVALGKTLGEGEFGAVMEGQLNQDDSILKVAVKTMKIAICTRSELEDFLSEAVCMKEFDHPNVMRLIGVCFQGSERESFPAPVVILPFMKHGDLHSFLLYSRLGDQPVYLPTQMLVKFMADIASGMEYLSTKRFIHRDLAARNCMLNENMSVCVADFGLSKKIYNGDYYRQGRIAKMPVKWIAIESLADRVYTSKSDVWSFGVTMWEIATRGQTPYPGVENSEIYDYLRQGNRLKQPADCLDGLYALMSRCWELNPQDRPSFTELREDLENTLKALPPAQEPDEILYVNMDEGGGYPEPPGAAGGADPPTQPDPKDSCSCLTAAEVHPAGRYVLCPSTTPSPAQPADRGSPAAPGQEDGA

AKT2 = AKT2 (Homo sapiens, UniProt P31751)
PRKAB2 = PRKAB2 (Homo sapiens, UniProt O43741)
PRKAB2, sequence (O43741 whole entry): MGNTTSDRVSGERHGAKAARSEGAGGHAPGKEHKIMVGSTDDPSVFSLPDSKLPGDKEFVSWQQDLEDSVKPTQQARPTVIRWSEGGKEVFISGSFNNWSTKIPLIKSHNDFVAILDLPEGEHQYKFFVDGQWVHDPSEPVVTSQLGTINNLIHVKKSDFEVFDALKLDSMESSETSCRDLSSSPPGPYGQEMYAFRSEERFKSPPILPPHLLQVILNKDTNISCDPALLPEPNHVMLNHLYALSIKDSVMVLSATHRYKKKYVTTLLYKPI

PRKAA2 = PRKAA2 (Homo sapiens, UniProt P54646)
PRKAA2, sequence (P54646 whole entry): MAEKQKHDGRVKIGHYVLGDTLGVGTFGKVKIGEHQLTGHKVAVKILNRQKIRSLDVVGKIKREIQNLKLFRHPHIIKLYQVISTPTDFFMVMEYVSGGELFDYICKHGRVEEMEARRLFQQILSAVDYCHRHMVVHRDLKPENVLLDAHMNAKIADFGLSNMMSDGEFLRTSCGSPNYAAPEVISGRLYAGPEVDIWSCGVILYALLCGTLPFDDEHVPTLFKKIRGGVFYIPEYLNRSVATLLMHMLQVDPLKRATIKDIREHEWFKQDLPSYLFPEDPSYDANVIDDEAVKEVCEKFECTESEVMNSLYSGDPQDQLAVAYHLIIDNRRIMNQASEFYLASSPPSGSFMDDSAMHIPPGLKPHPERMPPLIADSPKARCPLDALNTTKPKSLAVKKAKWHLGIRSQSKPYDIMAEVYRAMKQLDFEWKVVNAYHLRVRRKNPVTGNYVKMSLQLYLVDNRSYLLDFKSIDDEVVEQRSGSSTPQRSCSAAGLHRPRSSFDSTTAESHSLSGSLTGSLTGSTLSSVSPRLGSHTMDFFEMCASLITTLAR

CSNK2A1 = CSNK2A1 (Homo sapiens, UniProt P68400)
MAP3K15 = MAP3K15 (Homo sapiens, UniProt Q6ZN16)
MAP3K15, sequence (Q6ZN16 whole entry): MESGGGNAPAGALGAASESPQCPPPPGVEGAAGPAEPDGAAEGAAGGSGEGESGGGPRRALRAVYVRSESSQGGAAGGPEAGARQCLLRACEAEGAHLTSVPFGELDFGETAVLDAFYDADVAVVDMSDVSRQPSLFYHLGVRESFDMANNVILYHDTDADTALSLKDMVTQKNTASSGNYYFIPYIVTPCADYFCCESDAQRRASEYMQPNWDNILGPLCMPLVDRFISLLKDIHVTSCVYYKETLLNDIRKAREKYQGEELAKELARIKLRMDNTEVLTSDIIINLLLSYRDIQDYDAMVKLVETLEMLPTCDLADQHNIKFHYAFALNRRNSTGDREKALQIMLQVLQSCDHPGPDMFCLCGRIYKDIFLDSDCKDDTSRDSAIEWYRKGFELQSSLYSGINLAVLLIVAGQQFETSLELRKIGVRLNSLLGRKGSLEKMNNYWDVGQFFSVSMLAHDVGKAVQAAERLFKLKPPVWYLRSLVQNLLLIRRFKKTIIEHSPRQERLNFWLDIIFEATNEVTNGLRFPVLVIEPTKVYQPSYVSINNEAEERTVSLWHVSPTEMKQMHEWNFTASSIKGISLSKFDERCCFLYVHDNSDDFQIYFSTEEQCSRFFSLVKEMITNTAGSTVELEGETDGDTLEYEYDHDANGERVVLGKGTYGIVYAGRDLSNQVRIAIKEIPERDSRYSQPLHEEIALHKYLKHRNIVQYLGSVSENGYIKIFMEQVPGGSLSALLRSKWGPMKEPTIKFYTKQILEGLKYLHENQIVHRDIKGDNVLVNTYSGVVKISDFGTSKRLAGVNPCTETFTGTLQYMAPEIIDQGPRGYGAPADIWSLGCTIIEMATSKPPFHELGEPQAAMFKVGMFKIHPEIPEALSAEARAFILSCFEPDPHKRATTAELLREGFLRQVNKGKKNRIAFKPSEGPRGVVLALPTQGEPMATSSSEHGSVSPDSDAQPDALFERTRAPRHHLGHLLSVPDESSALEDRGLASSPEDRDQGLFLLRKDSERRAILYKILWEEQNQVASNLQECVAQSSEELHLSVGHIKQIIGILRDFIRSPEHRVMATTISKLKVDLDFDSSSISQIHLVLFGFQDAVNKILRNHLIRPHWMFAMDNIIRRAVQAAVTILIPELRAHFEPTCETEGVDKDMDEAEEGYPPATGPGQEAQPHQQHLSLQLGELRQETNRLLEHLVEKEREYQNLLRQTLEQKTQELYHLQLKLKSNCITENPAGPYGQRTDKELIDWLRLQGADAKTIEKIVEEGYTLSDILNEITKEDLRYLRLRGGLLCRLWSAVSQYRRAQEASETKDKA

CSNK2A2 = CSNK2A2 (Homo sapiens, UniProt P19784)
CSNK2A2, sequence (P19784 whole entry): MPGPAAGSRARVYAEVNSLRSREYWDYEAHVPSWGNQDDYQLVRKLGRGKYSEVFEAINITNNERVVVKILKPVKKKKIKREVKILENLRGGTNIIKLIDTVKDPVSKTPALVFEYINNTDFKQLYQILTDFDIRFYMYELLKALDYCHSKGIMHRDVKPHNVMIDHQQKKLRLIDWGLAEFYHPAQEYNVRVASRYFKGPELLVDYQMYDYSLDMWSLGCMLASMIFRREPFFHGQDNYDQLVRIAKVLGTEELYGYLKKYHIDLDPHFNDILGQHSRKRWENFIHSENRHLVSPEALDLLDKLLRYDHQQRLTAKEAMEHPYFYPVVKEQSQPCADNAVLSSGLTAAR

SGK3 = SGK3 (Homo sapiens, UniProt Q96BR1)
SGK3, sequence (Q96BR1 whole entry): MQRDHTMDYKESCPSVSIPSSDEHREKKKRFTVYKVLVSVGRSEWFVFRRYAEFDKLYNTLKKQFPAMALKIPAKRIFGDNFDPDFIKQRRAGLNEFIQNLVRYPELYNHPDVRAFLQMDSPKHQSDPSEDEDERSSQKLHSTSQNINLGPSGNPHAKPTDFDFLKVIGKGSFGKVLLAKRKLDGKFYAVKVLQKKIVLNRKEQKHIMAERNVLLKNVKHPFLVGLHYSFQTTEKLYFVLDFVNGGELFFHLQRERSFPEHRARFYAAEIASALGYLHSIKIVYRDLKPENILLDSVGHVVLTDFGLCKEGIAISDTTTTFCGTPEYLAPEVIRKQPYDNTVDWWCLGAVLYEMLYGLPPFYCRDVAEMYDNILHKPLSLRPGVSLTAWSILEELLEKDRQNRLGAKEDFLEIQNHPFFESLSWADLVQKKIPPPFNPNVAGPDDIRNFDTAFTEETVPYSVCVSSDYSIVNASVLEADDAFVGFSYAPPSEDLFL

MAPKAPK3 = MAPKAPK3 (Homo sapiens, UniProt Q16644)
DAPK3 = DAPK3 (Homo sapiens, UniProt O43293)
IRAK1 = IRAK1 (Homo sapiens, UniProt P51617)

Measured: IC50

COc1ccccc1-c1n[nH]c2nc(N[C@H]3CC[C@H](NS(=O)(=O)CCC(F)(F)F)CC3)nc(OC)c12 [compound 31, 3,3,3-Trifluoro-N-(trans-4-((4-methoxy-3-(2-methoxyphenyl)-1H-pyrazolo[3,4-d]pyrimidin-6-yl)amino)cyclohexyl)propane-1-sulfonamide]
≥ 20 µM: all assays above
